From US6844466B2, “Alkyl urea retinoid agonists” (Syntex (U.S.A.) LLC, priority 2001, dated 2005)
Where “and” joins values, the source holds several entries; their conditions need not be identical. Identical values can stand only once.

Legend:
[1] = Effect of RAR agonists on plasma triglyceride levels; type: in vivo, male, Wistar Han rats; settings: rat, oral
Text: Sixty male, Wistar Han rats (Charles Rivers Laboratories) were used in this experiment. The received weight of the rats varied between 200-250 gm. The compounds used in this study were formulated in Miglyol 812, Batch 000719, Product #6330 (Condea) with 0.01% BHA and 0.01% BHT. Three RAR agonists, illustrated below, were compared with regards to their effects on triglyceride levels. Compounds 39 and 40 are prior art compounds (see, Hashimoto, Yuichi; Kagechika, Hiroyuki; Kawachi, Emiko; Fukasawa, Hiroshi; Saito, Go; Shudo, Koichi. “Evaluation of differentiation-inducing activity of retinoids on human leukemia cell lines HL-60 and NB4” Biol. Pharm. Bull. (1996), 19(10), 1322-1328; and Takagi, Kanji; Suganuma, Masami; Kagechika, Hiroyuki; Shudo, Koichi; Ninomiya, Mitsuo; Muto, Yasutoshi; Fujiki, Hirota. “Inhibition of ornithine decarboxylase induction by retinobenzoic acids in relation to their binding affinities to cellular retinoid-binding proteins” J. Cancer Res. Clin. Oncol. (1988), 114(3), 221-4, while compound 27 is a compound prepared in Example 7, herein.
Animals were dosed with compounds 27, 39 and 40 or vehicle for two weeks (one 1.0 mL dose a day, total of 10 doses) by oral administration. Doses were 0.3 mg/kg, 1 mg/kg and 3 mg/kg. Animals were weighed twice a week for monitoring gross toxicity (% weight change and mucutaneous).
Animals were fasted for at least 4 hours before terminal blood collection. At the end of the experiment the animals were placed under deep anesthesia using pentobarbital ip (30-40 mg). Five to six ml of blood was collected via cardiac puncture for blood chemistry (Quality Clinical Lab, Mountain View, Calif.) and PK analysis (terminal). Animals were euthanized by exsanguination from the abdominal aorta or cervical dislocation. Plasma was collected and stored at −20
Quantitation of triglycerides contained in rat plasma may be performed using established procedures. […] Hydrogen peroxide may be quantitated […] in a Hitachi 911 Chemistry Analyzer. […]

[2] = test system: retinoic acid receptor (α, β and γ); assay: Transactivation of retinoic acid receptors; type: cell-based; settings: compared to prior art compounds 39 and 40
Text: Transactivation, which is the ability of a retinoid to activate gene transcription when gene transcription is initiated by the binding of a ligand to the particular retinoic acid receptor being tested, may be determined by using methods described in the art (Apfel et al., Proc. Natl. Acad. Sci., 1992, 89, 7129; Bernard et al., Biochem. And Biophys. Res. Comm., 1992, 186, 977 which is herein incorporated by reference).

[3] = test system: rat model of elastase-induced emphysema; assay: Alveolar repair in the rat model of elastase-induced emphysema; type: in vivo, male Sprague Dawley rats; settings: oral once per day, lower dosage levels (0.01 or 0.001 mg/kg), p≦0.05, FIG. 1
Text: Compounds of the invention may be evaluated for their effects on alveolar repair in the rat model of elastase-induced emphysema (Massaro et al., Nature, 1997, Vol. 3, No. 6: 675; Massaro et al., U.S. Pat. No. 5,998,486). Preferably, animals are divided into treatment groups of approximately eight. Lung inflammation and alveolar damage may be induced in male Sprague Dawley rats by a single instillation of about 2 U/gram body mass of pancreatic elastase (porcine derived, Calbiochem).
Animals may be treated with a compound of the invention formulated Miglyol at convenient oral dosage ranges (preferably, between about 10.0 mg/kg and 0.0001 mg/kg) and will be dosed orally once per day starting 21 days post injury. Control groups are challenged with elastase and 21 days later are treated with vehicle (Miglyol) for 14 days. Animals were sacrificed 24 hours after the last dose by exsanguination under deep anesthesia. Blood was collected at time of exsanguination for analysis.
The lungs are inflated with 10% neutral buffered formalin by intratracheal instillation at a constant rate (1 ml/gram body mass/min). […] The mean value/treatment group may be determined by summing the average area/rat for all eight rats/treatment groups and repair of elastase damage expressed as percentage of repair relative to the elastase+vehicle treated group from the following calculation: […]

Row | Structure (SMILES) | selectivity of transactivation among RAR α, β and γ [2] | melting point | also measured
1 | CN(C(=O)Nc1ccc(C(=O)O)cc1)c1ccc2c(c1)C(C)(C)CCC2(C)C [Compound 40, reference compound] | pan-agonists | – | dose dependence of triglyceride levels ([1]; two weeks, 0.3, 1 and 3 mg/kg): triglyceride levels increasing with increasing dosage
2 | CC1(C)CCC(C)(C)c2cc(NC(=O)Nc3ccc(C(=O)O)cc3)ccc21 [Compound 39, reference compound] | pan-agonists | – | –
3 | CCCCCN(C(=O)Nc1ccc(C(=O)O)cc1F)c1ccc2c(c1)C(C)(C)CCC2(C)C [Compound 57, 3-fluoro-4-[3-pentyl-3-(5,5,8,8-tetramethyl-5,6,7,8-tetrahydro-naphthalen-2-yl)-ureido]-benzoic acid] | – | 150.9 to 157.4 °C | –
4 | CCCCCCN(C(=O)Nc1ccc(C(=O)O)cc1)c1ccc2c(c1)C(C)(C)CCC2(C)C [Compound 13, 4-[3-hexyl-3-(5,5,8,8-tetramethyl-5,6,7,8-tetrahydro-naphthalen-2-yl)-ureido]-benzoic acid] | – | 176 to 177 °C | –
5 | CCCCCCCCN(C(=O)Nc1ccc(C(=O)O)cc1)c1ccc2c(c1)C(C)(C)CCC2(C)C [Compound 25, 4-[3-octyl-3-(5,5,8,8-tetramethyl-5,6,7,8-tetrahydro-naphthalen-2-yl)-ureido]-benzoic acid] | – | 166 to 167 °C and 165.8 to 167.2 °C | –
6 | CCCCCN(C(=O)Nc1ccc(C(=O)O)cc1)c1ccc2c(c1)C(C)(C)CCC2(C)C [Compound 27, 4-[3-pentyl-3-(5,5,8,8-tetramethyl-5,6,7,8-tetrahydro-naphthalen-2-yl)-ureido]-benzoic acid] | unexpectedly selective at activating transcription activity through the gamma receptor | – | alveolar repair [3]: significant; triglyceride levels expressed as a percentage relative to vehicle control (100%) ([1]; two weeks (10 doses), at the higher dose, FIG. 2): < 100%; elevation of triglyceride levels relative to vehicle control (in words) ([1]; two weeks, 0.3, 1 and 3 mg/kg): did not significantly elevate triglycerides levels
7 | CCCN(C(=O)Nc1ccc(C(=O)O)cc1)c1ccc2c(c1)C(C)(C)CCC2(C)C [Compound 55] | unexpectedly selective at activating transcription activity through the gamma receptor | 175 to 186 °C | –
